Measurements published in ChEMBL document CHEMBL3351904, “Synthesis of new bioisosteric hemiasterlin analogues with extremely high cytotoxicity” (Bioorg Med Chem Lett, 2014).

What was measured:
KB = experiment: Cytotoxicity against human KB cells assessed as reduction in cell growth after 3 days by MTT assay; format: functional, cell-based; conditions: 72 h
HepG2 = experiment: Cytotoxicity against human HepG2 cells assessed as reduction in cell growth after 3 days by MTT assay; format: functional, cell-based; conditions: HepG2, 72 h

| SMILES | IC50 (KB) | IC50 (HepG2) |
| --- | --- | --- |
| CCOC(=O)/C(C)=C/[C@H](C(C)C)N(C)C(=O)[C@@H](NC(=O)[C@H](NC)C(C)(C)c1coc2ccccc12)C(C)(C)C | 760 nM | 730 nM |
| CCOC(=O)/C(C)=C/[C@H](C(C)C)N(C)C(=O)[C@@H](NC(=O)[C@H](NC)C(C)(C)c1ccc2ccccc2c1)C(C)(C)C | 181 nM | 144 nM |
| CCOC(=O)/C(C)=C/[C@H](C(C)C)N(C)C(=O)[C@@H](NC(=O)[C@@H](NC)C(C)(C)c1ccc2ccccc2c1)C(C)(C)C | 13 nM | 13 nM |
| CCOC(=O)/C(C)=C/[C@H](C(C)C)N(C)C(=O)[C@@H](NC(=O)[C@H](NC)C(C)(C)c1ccc(Br)cc1)C(C)(C)C | 172 nM | 10 nM |
| CN[C@H](C(=O)N[C@H](C(=O)N(C)[C@H](/C=C(\C)C(=O)O)C(C)C)C(C)(C)C)C(C)(C)c1coc2ccccc12 | 1.7 nM | 1.9 nM |
| CN[C@H](C(=O)N[C@H](C(=O)N(C)[C@H](/C=C(\C)C(=O)O)C(C)C)C(C)(C)C)C(C)(C)c1ccc2ccccc2c1 | 1.9 nM | 1.9 nM |
| CN[C@@H](C(=O)N[C@H](C(=O)N(C)[C@H](/C=C(\C)C(=O)O)C(C)C)C(C)(C)C)C(C)(C)c1ccc2ccccc2c1 | 14 nM | 34 nM |
| CN[C@@H](C(=O)N[C@H](C(=O)N(C)[C@H](/C=C(\C)C(=O)O)C(C)C)C(C)(C)C)C(C)(C)c1coc2ccccc12 | 43 nM | 37 nM |
| CCOC(=O)/C(C)=C/[C@H](C(C)C)N(C)C(=O)[C@@H](NC(=O)[C@@H](NC)C(C)(C)c1ccc(Br)cc1)C(C)(C)C | 12 nM | 6 nM |
| CCOC(=O)/C(C)=C/[C@H](C(C)C)N(C)C(=O)[C@@H](NC(=O)[C@@H](NC)C(C)(C)c1coc2ccccc12)C(C)(C)C | 13 nM | 11 nM |
| CN[C@@H](C(=O)N[C@H](C(=O)N(C)[C@H](/C=C(\C)C(=O)O)C(C)C)C(C)(C)C)C(C)(C)c1ccc(Br)cc1 | 11 nM | 13 nM |
| CN[C@H](C(=O)N[C@H](C(=O)N(C)[C@H](/C=C(\C)C(=O)O)C(C)C)C(C)(C)C)C(C)(C)c1ccc(Br)cc1 | 1.7 nM | 1.8 nM |
